# Data from ChEMBL document CHEMBL1201862, “PubChem BioAssay data set” (2004).
# Calls of active or inactive are those of the source.
# Columns and labels:
# [1] = target: T1, Oxysterols receptor LXR-beta (Homo sapiens, UniProt P55055); assay type: functional, cell-based;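 further: Cell-based luminescence dose-response assay of agonist activity at LXR, run as a confirmatory counterscreen to a daf-12 agonist screen; agonist potency from rising luciferase signal of a Gal4-LXR reporter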
# T1 sequence (P55055 whole entry): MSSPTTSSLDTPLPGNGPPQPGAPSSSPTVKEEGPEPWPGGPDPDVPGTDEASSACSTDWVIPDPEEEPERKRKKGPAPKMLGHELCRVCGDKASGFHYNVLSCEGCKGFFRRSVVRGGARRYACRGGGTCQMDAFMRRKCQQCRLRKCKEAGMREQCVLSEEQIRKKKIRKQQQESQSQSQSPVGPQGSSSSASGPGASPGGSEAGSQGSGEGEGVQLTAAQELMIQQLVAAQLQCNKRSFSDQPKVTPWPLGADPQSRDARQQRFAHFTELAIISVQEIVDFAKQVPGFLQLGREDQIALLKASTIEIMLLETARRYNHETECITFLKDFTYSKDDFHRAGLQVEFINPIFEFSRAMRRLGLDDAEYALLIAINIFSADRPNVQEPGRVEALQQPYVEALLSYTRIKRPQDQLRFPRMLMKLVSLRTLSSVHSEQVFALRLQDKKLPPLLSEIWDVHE
# [2] = Luminescence Cell-Based Dose Confirmation HTS to Identify Inhibitors of Polyadenylation.; assay type: functional
# HEK293 [3] = assay: inhibition of NOD1-driven NF-kB reporter – cell-based, luminescence, uHTS, primary screen (AID 1578); assay type: functional; details: Homo sapiens
# HEK293 [4] = assay: cells; assay type: functional, cell-based; details: Homo sapiens
# HEK293 [5] = assay: cells; assay type: functional, cell-based; details: Homo sapiens; remark: listed apart in the source
# [6] = target: Nucleotide-binding oligomerization domain-containing protein 2 (Homo sapiens, UniProt Q9HC29); assay: inhibition of NOD2-driven NF-kB reporter – cell-based, luminescence, uHTS, HEK293 (AID 1566); assay type: functional
# HEK293 [7] = assay: NOD2 signaling inhibitors in MDP-stimulated cells, cell-based, uHTS, luminescence (AID 2001); assay type: functional; details: Homo sapiens
# HEK293 [8] = assay: cells; assay type: functional, cell-based; details: Homo sapiens; remark: listed apart in the source
# [9] = A549 cell cytotoxicity, dose response, cytotoxicity control, plate reader, cherry-pick, antagonist series (AID 743412); assay type: functional, cell-based
# [10] = blockers of bursicon-stimulated LGR2 cAMP reporter – cell-based, HEK293, CRE-luciferase reporter, cherry pick, set 2, dose response (AID 743343); assay type: functional;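 further: transfected cells were stimulated with diluted bursicon conditioned medium after compound addition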
# [11] = blockade of melanocortin 4 receptor signaling – cell-based, plate reader, cherry pick, counter-screen for LGR2 antagonist project, dose response (AID 743444); assay type: functional;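 further: transfected HEK 293 cells stimulated with alpha-MSH peptide; potency of inhibitors of the alpha-MSH evoked signal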
# [12] = target: E3 ubiquitin-protein ligase Mdm2 (Homo sapiens, UniProt Q00987); assay: MDM2-luc reporter signal enhancers, multi-concentration potency testing, MDM2 ubiquitin-protein ligase inhibitor program, whole-cell format, luminescence detection, 384-well microplate (AID 1394); assay type: functional;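 further: MDM2 E3 inhibitors raise luminescence so EC50 is for signal enhancement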
# Sequence of E3 ubiquitin-protein ligase Mdm2 (Q00987 whole entry): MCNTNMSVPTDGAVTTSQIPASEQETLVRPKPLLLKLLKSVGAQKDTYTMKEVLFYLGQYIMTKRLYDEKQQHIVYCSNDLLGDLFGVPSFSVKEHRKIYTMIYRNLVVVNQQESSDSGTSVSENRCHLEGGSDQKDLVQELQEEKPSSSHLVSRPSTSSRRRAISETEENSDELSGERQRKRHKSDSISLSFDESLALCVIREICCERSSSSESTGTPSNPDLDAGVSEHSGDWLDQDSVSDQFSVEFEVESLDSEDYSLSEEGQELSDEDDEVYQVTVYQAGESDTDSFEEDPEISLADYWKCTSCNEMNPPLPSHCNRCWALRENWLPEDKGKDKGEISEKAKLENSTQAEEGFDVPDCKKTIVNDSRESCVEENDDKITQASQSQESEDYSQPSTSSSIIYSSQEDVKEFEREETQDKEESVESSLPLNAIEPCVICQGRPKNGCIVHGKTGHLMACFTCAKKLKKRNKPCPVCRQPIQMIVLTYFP
# [13] = Luminescence-based cell-based high throughput dose response assay to identify activators of the DAF-12 from the parasite S. stercoralis (ssDAF-12).; assay type: functional
# [14] = target: T1, Oxysterols receptor LXR-beta; assay: LXR agonists, Gal4 luciferase reporter, dose response, counter-screen for ssDAF-12 agonist project, cell-based, luminescence, HEK293, S. stercoralis campaign (AID 720737); assay type: functional; details: read-out: IC50 (the source's name)
# [15] = target: Peroxisome proliferator-activated receptor gamma/Nuclear receptor coactivator 2 (Homo sapiens, UniProt P37231); assay type: functional;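 further: agonist potency for raising coactivator recruitment to the receptor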
# [16] = target: Peroxisome proliferator-activated receptor gamma/Nuclear receptor coactivator 1 (Homo sapiens, UniProt P37231); assay type: functional;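 further: agonist potency as compounds enhance coactivator SRC-1 recruitment to PPARgamma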
# [17] = target: Peroxisome proliferator-activated receptor gamma/Nuclear receptor coactivator 3 (Homo sapiens, UniProt P37231); assay type: functional;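 further: agonist potency for raising coactivator recruitment to the receptor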
# Sequence of Peroxisome proliferator-activated receptor gamma/Nuclear receptor coactivator 3 (P37231 whole entry): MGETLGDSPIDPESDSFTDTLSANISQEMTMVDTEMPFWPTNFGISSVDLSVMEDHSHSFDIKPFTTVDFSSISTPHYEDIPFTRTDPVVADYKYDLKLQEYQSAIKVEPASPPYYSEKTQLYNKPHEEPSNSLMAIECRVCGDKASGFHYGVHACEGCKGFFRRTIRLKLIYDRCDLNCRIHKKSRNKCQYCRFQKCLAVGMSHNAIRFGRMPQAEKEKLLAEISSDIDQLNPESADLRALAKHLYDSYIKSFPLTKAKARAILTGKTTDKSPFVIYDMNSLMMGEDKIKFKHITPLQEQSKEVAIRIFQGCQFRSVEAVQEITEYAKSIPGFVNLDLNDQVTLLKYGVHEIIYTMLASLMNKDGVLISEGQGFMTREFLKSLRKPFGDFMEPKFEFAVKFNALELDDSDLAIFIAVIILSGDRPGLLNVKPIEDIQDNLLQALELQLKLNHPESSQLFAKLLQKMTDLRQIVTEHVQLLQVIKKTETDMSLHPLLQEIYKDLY
# Sequence of Peroxisome proliferator-activated receptor gamma/Nuclear receptor coactivator 3 (Q9Y6Q9 whole entry, further chain): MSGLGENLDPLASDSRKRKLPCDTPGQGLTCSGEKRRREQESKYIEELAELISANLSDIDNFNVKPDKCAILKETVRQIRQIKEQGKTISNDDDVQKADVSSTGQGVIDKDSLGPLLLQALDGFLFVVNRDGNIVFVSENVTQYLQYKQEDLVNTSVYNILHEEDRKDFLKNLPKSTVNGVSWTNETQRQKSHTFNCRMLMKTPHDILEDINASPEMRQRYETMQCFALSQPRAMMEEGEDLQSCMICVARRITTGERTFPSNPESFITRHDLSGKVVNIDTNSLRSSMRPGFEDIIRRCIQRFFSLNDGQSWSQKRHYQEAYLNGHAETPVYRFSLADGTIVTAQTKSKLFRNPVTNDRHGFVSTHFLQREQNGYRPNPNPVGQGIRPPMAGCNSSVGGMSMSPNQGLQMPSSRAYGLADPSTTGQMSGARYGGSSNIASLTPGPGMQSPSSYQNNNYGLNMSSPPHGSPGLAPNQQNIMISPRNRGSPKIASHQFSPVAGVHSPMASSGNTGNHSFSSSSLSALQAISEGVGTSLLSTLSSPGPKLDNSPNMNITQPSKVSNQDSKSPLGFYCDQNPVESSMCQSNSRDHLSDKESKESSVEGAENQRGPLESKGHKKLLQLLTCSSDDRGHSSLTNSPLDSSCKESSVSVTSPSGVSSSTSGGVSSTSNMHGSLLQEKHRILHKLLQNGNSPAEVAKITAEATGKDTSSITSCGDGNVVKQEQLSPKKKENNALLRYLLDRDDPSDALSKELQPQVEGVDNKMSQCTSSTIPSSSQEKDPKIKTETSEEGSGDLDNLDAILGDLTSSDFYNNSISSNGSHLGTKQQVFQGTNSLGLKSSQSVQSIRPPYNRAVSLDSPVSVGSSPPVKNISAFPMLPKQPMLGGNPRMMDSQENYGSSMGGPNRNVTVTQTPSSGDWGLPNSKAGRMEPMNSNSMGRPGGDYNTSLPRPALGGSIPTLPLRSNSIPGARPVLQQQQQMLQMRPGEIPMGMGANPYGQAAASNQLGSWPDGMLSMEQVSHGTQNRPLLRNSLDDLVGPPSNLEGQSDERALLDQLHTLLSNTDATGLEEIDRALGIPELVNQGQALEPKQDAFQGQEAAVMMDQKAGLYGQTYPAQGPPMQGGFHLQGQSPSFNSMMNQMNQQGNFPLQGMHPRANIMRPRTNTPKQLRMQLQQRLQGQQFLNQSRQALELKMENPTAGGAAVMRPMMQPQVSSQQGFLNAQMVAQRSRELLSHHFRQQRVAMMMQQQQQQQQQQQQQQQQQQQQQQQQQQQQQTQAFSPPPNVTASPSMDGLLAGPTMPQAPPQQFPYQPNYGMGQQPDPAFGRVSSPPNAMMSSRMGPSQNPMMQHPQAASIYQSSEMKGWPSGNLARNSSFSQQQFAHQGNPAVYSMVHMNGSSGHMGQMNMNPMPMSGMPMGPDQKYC
# [18] = viability of uninfected HEp-2 cells – cell-based, HTS, cytotoxicity control for RSV inhibitor project, dose response (AID 2410); assay type: functional; details: human respiratory syncytial virus
# [19] = Luminescence Cell-Based Dose Retest to Confirm Inhibitors of Cancer Stem Cells. [Related pubchem assays (depositor defined):AID2717, AID2721]; assay type: functional; details: Homo sapiens
# [20] = potency of ADAM10 substrate cleavage blockers – biochemical, QFRET, dose response (AID 743254);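 further: ADAM10 enzyme with the DM2 quenched FRET peptide as substrate; EDANS fluorescence gain as the protease cuts the substrate; inhibitor potency against ADAM10 proteolytic activity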
# [21] = target: Disintegrin and metalloproteinase domain-containing protein 17 (Homo sapiens, UniProt P78536); assay: inhibition of ADAM17 substrate cleavage – biochemical, quenched FRET substrate, counter-screen for ADAM10 exosite inhibitor project, dose response (AID 743253)
# Sequence of Disintegrin and metalloproteinase domain-containing protein 17 (P78536 whole entry, the tested form may be a part): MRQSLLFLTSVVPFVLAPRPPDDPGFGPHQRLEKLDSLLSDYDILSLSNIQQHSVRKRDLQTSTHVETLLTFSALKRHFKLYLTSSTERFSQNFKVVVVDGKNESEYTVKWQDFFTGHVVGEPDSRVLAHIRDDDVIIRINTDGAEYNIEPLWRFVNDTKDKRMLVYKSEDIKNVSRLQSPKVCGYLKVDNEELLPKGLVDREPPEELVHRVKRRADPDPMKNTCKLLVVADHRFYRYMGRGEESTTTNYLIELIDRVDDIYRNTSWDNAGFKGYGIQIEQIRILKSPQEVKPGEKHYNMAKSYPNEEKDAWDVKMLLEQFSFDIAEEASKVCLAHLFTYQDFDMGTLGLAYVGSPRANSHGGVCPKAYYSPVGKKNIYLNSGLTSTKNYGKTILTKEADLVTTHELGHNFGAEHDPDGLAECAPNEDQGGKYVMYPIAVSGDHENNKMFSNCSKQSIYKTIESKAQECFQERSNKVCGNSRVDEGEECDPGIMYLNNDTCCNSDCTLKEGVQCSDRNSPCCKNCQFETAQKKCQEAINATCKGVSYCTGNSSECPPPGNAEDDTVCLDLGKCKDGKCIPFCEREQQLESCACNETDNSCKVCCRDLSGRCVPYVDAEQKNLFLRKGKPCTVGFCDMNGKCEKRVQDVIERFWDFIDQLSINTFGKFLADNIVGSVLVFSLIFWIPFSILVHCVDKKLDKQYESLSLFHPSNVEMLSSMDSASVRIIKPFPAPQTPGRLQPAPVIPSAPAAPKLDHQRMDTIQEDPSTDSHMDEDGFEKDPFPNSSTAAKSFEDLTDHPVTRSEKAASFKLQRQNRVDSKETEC
# [22] = Trypanosoma cruzi growth suppression in host cells – NIH3T3 host cells, beta-gal luminescence, confirmation (AID 2044); assay type: functional, cell-based;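 further: intracellular parasites grown in NIH/3T3 mouse fibroblasts as host cells; luminescent beta-galactosidase reporter signal from transgenic T. cruzi replicating inside host cells; inhibitors lower the luminescence signal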
# [23] = NIH3T3 cell viability loss – ATP luminescence, mouse fibroblasts, counter-screen, dose response (AID 2010); assay type: functional, cell-based;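 further: cells exposed to compound for about 90 hours before reading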
# [24] = target: Luciferin 4-monooxygenase (Photinus pyralis, UniProt P08659); assay: inhibition of purified Photinus pyralis luciferase – biochemical, luminescence, dose response (AID 1891)
# Sequence of Luciferin 4-monooxygenase (P08659 whole entry): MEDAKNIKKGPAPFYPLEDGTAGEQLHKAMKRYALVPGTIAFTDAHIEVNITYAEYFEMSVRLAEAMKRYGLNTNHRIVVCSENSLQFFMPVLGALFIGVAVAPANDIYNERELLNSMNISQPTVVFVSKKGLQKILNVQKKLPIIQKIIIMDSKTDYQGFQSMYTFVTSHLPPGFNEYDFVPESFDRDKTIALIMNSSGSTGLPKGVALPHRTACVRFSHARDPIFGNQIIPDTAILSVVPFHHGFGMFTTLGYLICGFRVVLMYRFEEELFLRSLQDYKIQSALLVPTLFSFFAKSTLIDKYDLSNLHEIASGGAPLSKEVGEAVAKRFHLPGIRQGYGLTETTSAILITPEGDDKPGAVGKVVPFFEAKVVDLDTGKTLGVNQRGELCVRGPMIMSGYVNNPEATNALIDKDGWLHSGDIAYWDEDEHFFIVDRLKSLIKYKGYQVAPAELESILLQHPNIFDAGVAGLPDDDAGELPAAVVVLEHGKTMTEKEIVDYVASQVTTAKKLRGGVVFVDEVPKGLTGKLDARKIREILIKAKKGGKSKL
# [25] = Luminescence Cell-Based Dose Confirmation HTS to Identify Inhibitors of Platelet Dense Granule Release. [Related pubchem assays: 1663 (Primary HTS), 1678 (Summary of Project)]; assay type: functional
# Estrogen receptor beta = Estrogen receptor beta (Homo sapiens, UniProt Q92731); assay: blockers of SRC-3 recruitment to ERβ – biochemical, ELISA, streptavidin-HRP readout, orthogonal assay, confirmation (AID 1060)
# Sequence of Estrogen receptor beta (Q92731 whole entry): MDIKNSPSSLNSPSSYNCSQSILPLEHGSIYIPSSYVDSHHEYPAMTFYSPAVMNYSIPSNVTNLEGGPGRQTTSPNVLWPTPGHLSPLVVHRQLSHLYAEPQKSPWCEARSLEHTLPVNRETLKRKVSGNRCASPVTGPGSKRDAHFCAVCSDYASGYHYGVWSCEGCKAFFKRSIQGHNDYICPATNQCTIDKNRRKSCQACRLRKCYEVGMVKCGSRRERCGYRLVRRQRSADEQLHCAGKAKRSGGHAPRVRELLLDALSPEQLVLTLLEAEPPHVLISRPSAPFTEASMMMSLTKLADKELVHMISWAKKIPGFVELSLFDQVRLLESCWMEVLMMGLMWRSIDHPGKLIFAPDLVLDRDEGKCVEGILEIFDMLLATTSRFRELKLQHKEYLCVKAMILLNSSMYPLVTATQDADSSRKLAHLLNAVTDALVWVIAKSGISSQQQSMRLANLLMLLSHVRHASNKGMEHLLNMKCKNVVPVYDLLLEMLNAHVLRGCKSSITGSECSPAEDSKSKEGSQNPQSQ
# Cytochrome P450 1A2 = target: T2, Cytochrome P450 1A2 (Homo sapiens, UniProt P05177);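 further: PubChem cytochrome P450 panel assay, CYP1A2 panel member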
# T2 sequence (P05177 whole entry): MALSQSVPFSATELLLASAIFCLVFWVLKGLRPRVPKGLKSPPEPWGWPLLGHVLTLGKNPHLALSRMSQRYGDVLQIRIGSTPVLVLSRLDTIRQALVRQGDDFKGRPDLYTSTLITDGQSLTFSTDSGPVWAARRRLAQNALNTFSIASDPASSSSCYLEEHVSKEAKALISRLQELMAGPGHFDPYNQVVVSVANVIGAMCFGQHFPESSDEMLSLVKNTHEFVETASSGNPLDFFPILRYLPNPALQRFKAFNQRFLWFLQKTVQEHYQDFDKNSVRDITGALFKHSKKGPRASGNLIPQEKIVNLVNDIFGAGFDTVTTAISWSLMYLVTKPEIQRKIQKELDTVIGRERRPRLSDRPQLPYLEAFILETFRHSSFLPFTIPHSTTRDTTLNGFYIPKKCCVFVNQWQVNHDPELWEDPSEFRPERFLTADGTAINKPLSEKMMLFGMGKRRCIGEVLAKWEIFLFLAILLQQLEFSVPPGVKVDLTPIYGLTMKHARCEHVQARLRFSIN
# Cytochrome P450 2C9 = Cytochrome P450 2C9 (Homo sapiens, UniProt P11712)
# Sequence of Cytochrome P450 2C9 (P11712 whole entry): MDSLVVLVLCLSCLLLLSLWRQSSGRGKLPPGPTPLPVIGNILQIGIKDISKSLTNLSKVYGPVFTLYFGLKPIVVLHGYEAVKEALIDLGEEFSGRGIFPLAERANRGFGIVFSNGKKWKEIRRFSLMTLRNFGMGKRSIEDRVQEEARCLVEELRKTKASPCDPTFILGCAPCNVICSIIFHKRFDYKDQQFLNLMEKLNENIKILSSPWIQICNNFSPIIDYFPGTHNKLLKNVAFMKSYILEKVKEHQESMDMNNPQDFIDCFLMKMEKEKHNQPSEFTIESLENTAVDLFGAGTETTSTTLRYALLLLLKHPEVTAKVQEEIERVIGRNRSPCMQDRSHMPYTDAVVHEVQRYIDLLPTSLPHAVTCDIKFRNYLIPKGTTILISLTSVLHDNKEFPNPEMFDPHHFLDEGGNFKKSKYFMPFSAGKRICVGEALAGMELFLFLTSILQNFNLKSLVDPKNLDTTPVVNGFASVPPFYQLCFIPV
# [26] = target: T3, Epstein-Barr nuclear antigen 1 (Epstein-Barr virus (strain B95-8) (HHV-4) (Human herpesvirus 4), UniProt P03211); assay: inhibition of EBV nuclear antigen 1 DNA binding – biochemical, fluorescence polarization, 1536-well, dose response (AID 2381); set-up: species or system human gammaherpesvirus 4;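 further: fluorescence polarization of a Cy5 DNA probe bound by EBNA-1 protein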
# T3 sequence (P03211 whole entry): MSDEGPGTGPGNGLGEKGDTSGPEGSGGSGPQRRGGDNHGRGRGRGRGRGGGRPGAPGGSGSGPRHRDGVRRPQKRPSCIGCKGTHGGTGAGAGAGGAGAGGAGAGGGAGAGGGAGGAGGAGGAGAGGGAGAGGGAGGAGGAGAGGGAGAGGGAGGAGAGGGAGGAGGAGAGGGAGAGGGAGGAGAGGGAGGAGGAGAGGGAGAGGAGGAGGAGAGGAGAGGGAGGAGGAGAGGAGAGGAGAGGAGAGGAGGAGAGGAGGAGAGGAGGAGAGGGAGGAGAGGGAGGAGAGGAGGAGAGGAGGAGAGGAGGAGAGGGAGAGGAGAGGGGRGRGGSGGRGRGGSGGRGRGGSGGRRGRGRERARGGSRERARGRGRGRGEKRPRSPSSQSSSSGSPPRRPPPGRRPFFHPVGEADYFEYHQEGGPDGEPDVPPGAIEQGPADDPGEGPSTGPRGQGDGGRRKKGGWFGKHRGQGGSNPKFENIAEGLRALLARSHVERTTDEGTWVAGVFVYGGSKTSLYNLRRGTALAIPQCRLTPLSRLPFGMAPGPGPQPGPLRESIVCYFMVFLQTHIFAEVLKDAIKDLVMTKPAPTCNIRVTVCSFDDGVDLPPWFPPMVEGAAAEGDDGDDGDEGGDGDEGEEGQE
# [27] = target: T4, Lytic switch protein BZLF1 (Epstein-Barr virus (strain B95-8) (HHV-4) (Human herpesvirus 4), UniProt P03206); assay: inhibition of BZLF1 ZTA DNA binding – biochemical, fluorescence polarization, Epstein-Barr virus, 1536-well, counter-screen for EBNA-1 inhibitor project, dose response (AID 2377); set-up: species or system human gammaherpesvirus 4;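 further: fluorescence polarization of Cy5-labelled ZRE DNA probe bound by purified Zta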
# T4 sequence (P03206 whole entry): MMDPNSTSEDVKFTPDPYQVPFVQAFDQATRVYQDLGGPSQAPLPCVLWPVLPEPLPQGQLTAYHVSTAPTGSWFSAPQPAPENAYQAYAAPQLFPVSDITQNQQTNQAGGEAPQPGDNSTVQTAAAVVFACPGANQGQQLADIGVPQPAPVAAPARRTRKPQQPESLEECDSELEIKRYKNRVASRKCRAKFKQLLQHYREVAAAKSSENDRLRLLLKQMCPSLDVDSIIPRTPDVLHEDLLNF
# [28] = HPDE-C7 pancreatic duct cell viability loss – fluorescence, HTS (AID 430); assay type: functional, cell-based; details: Homo sapiens
# [29] = viability loss of HPDE-C7K cells – cell-based, fluorescence, HTS, primary screen (AID 431); assay type: functional; details: Homo sapiens
# [30] = microbe, parasite or virus in culture; assay type: functional; details: Mycobacterium tuberculosis
compound,measurement,setting,value
CCOC(=O)c1s/c(=N\C(=O)c2ccc(Cl)s2)n(C)c1C,EC50,[1],> 67.5 µM (inactive)
same,EC50,cells,> 67.5 µM (inactive)
CC(=O)c1c(COC(=O)c2ccc(Cl)cc2)nc2ccccc2[n+]1[O-],EC50,[2],> 120 µM (not active)
COc1ccc(-n2ncc3c(N(C)C4CCCCC4)ncnc32)cc1,EC50,HEK293 [3],7.56 µM (active)
same,IC50,HEK293 [4],8.11 µM (active)
same,IC50,HEK293 [5],> 20 µM (inactive)
same,EC50,[6],< 0.31 µM (inactive)
same,IC50,HEK293 [7],10.7 µM (inactive)
same,IC50,HEK293 [8],> 20 µM (inactive)
same,AC50,[9],> 52 µM (inactive)
same,AC50,[10],0.246 µM (active)
same,AC50,[11],0.578 µM (active)
CN(C)c1cc(C(F)(F)F)nc(-c2ccccn2)n1,EC50,[12],4.16 µM (not active)
Oc1ccccc1-c1cc(-c2ccccc2Cl)[nH]n1,IC50,[13],> 67.5 µM (inactive)
same,EC50,[14],> 67.5 µM (inactive)
Fc1ccccc1-c1ccc(/C=N/Nc2nc3ccccc3[nH]2)o1,IC50,[13],> 67.5 µM (inactive)
same,EC50,[14],> 67.5 µM (inactive)
Clc1ccccc1Cn1nnc(-c2ccccc2)n1,IC50,[13],> 67.5 µM (inactive)
same,EC50,[14],> 67.5 µM (inactive)
O=C(CSc1nc2cccnc2n1Cc1ccccc1)NCc1ccco1,EC50,[15],> 79.4 µM (not active)
same,EC50,[16],> 79.4 µM (not active)
same,EC50,[17],> 79.4 µM (not active)
CC(/C=C1\SC(=O)N(CC(=O)Nc2cccc(O)c2)C1=O)=C\c1ccccc1,CC50,[18],13.9 µM (active)
same,AC50,[19],4.04 µM (active)
same,IC50,[20],10.2 µM (inactive)
same,IC50,[21],> 69.5 µM (inactive)
O=C(CN(Cc1cccs1)S(=O)(=O)c1ccc(S(=O)(=O)NC2CCCCC2)cc1)Nc1ccccc1,EC50,[22],2.08 µM (active)
same,EC50,[23],> 60 µM (not active)
same,IC50,[20],7.69 µM (active)
same,IC50,[21],> 69.5 µM (inactive)
COc1ccc(C(=O)/C=C/Nc2cc(C)ccn2)cc1,EC50,[24],1.69 µM (active)
same,EC50,[25],7.6 µM (active)
same,EC50,[1],> 67.6 µM (inactive)
same,EC50,cells,> 67.6 µM (inactive)
CCN1CCN(Cc2ccc(NC(=O)Nc3cccs3)cc2)CC1,IC50,Estrogen receptor beta,0.41 µM (not active)
same,AC50,Cytochrome P450 1A2,12.6 µM (inconclusive)
same,AC50,Cytochrome P450 2C9,7.94 µM (inconclusive)
CCOc1ccc(OCC)c(NC(=O)C(NS(=O)(=O)c2ccc3c(c2)oc(=O)n3C)C(C)C)c1 (configuration not stated),IC50,[26],> 5.47 µM (active)
same,IC50,[27],> 111 µM (not active)
COc1ccc(C2C(C(=O)N3CCN(C)CC3)c3cc(OC)c(OC)cc3C(=O)N2C)cc1 (configuration not stated),EC50,[12],2.94 µM (not active)
COc1ccc(NCCNc2ccc(OC)cc2)cc1,EC50,[15],> 79.4 µM (not active)
same,EC50,[16],> 79.4 µM (not active)
same,EC50,[17],> 79.4 µM (not active)
CCOC(=O)c1sc(NC(=O)COc2ccc3c(c2)OCO3)nc1C,IC50,[26],7.18 µM (active)
same,IC50,[27],> 111 µM (not active)
Cc1cccc(N(C(=O)c2snc(C(N)=O)c2N)C(C(=O)NCC2CCCO2)c2ccc(N(C)C)cc2)c1C (configuration not stated),IC50,[26],2.73 µM (active)
same,IC50,[27],> 111 µM (not active)
O=C(c1ccc(F)cc1)N1CCC(N2CCCCCC2)CC1,EC50,[28],> 20 µM (not active)
same,EC50,[29],> 20 µM (not active)
O=C(NC(C(=O)N/N=C/c1cccc2ccccc12)c1nnc(O)c2ccccc12)c1ccccc1 (configuration not stated),CC50,[30],> 40 µM (active)
same,IC50,[20],> 69.5 µM (inactive)
same,IC50,[21],> 69.5 µM (inactive)
